The values that follow come from ChEMBL document CHEMBL4433235, “Discovery of piperazic acid peptide deformylase inhibitors with in vivo activity for respiratory tract and skin infections” (Bioorg Med Chem Lett, 2019).

≈ marks a conversion by molar mass, not a printed value. Bounds are passed on as bounds.

The IC50 is the concentration that inhibits the measured activity by half. As usually defined, the solubility (kinetic) is solubility judged after dilution from a stock solution rather than from solid. The AUC is concentration integrated over time. Higher therefore signals more exposure. As a reminder, the bioavailability is dose-corrected exposure relative to a reference, in per cent. Read a high bioavailability as much systemic uptake. For orientation: Cmax means the peak of the concentration-time curve. For orientation: half-life means the time needed for the level to fall by half in the phase considered. Broadly, the clearance is the volume of plasma or blood freed of the substance per unit of time. A high value points to a high capacity for elimination.

For data set [1], the system named is Haemophilus influenzae. Put plainly: Antimicrobial activity against Haemophilus influenzae Q1. Type of data set: functional.
The target in data set [2] is T1, Peptide deformylase (Staphylococcus aureus, UniProt P68826).
T1 sequence (P68826 whole entry): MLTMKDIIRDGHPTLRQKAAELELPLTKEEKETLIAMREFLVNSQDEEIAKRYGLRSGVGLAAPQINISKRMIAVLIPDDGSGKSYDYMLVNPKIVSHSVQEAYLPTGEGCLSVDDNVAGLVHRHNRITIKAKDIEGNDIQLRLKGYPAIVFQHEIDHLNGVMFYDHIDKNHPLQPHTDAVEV
Description: Inhibition of Staphylococcus aureus PDF by fluorescence detection assay.

Data set [3] deals with Staphylococcus aureus. Put plainly: Antimicrobial activity against Staphylococcus aureus. Type of data set: functional.
Data set [4] is described as follows: Solubility of compound by chemiluminescent nitrogen detection assay. Type of data set: physicochemical.
The test system of data set [5] is Streptococcus pneumoniae. Description: Antimicrobial activity against Streptococcus pneumoniae 1629. Type of data set: functional.
The subject of data set [6] is Haemophilus influenzae. Put plainly: Antimicrobial activity against Haemophilus influenzae. Type of data set: functional.
The test system of data set [7] is Staphylococcus aureus. Put plainly: Antimicrobial activity against Staphylococcus aureus Oxford. Type of data set: functional.
Data set [8] can be described thus: Inhibition of Streptococcus pneumoniae PDF by fluorescence detection assay.
Data set [9] has as its system Streptococcus pneumoniae. Put plainly: Antimicrobial activity against Streptococcus pneumoniae. Type of data set: functional.
Data set [10] in a line: Chromatographic hydrophobicity index, log D of compound at pH 7.4. The settings on record: buffer. Type of data set: physicochemical.
The nature of data set [11]: Inhibition of Haemophilus influenzae PDF by fluorescence detection assay.
Data set [12] is described as follows: Inhibition of Streptococcus pneumoniae PDF by absorbance detection assay.
The target in data set [13] is T1, Peptide deformylase. Put plainly: Inhibition of Staphylococcus aureus PDF by absorbance detection assay.
Data set [14] in a line: Inhibition of Haemophilus influenzae PDF by absorbance detection assay.
A short description of data set [15]: AUC in rat at 5 mg/kg, po. Type of data set: ADME, organism-based. As to conditions: in vivo.
Data set [16] can be described thus: Oral bioavailability in rat at 5 mg/kg. Type of data set: ADME, organism-based. The settings on record: in vivo.
Data set [17] is described as follows: Cmax in rat at 5 mg/kg, po. The settings on record: in vivo. Type of data set: ADME, organism-based. Details: dose 5 mg/kg, route oral.
The nature of data set [18]: Half life in rat at 3 mg/kg, iv. Type of data set: ADME, organism-based. The settings on record: in vivo.
Data set [19] can be described thus: Half life in rat at 5 mg/kg, po. Type of data set: ADME, organism-based. The settings on record: in vivo.
The nature of data set [20]: AUC in rat at 3 mg/kg, iv. Type of data set: ADME, organism-based. The settings on record: in vivo.
Data set [21] is described as follows: Volume of distribution at steady state in rat at 3 mg/kg, iv. Type of data set: ADME, organism-based. As to conditions: in vivo, read-out: Vdss.
A short description of data set [22]: Clearance in rat at 3 mg/kg, iv. Type of data set: ADME, organism-based. As to conditions: in vivo.

Take `CN1CCN(c2cc(NC(=O)[C@@H]3CCCNN3C(=O)[C@H](CC3CCCC3)CN(O)C=O)ncn2)CC1`: the MIC amounted to 2 µg/mL (≈ 3.98 µM) against Haemophilus influenzae [1], 0.25 µg/mL (≈ 0.497 µM) against Streptococcus pneumoniae [5] and 0.5 µg/mL (≈ 0.995 µM) with Staphylococcus aureus [7]. Moreover, the values for the IC50 (on Peptide deformylase [2]; in data set [8]; in [11]) were 3 nM, 1 nM and 25 nM, respectively. Further, the MIC90 with Staphylococcus aureus [3] is 0.5 µg/mL (≈ 0.995 µM); in the data set on Haemophilus influenzae [6], 2 µg/mL (≈ 3.98 µM); against Streptococcus pneumoniae [9] it was 0.25 µg/mL (≈ 0.497 µM). This compound registered a kinetic solubility in data set [4] of over 573 µM. Further, in data set [10], the CHI is listed as 2.7.
For the compound `CCCNC(=O)[C@@H]1CCCNN1C(=O)[C@H](CC1CCCC1)CN(O)C=O`, the MIC turned out to be 0.5 µg/mL (≈ 1.36 µM) in the data set on Haemophilus influenzae [1], 4 µg/mL (≈ 10.9 µM) in the data set on Streptococcus pneumoniae [5] and 4 µg/mL (≈ 10.9 µM) in the data set with Staphylococcus aureus [7]. For the same compound, in [4], the solubility (kinetic) was over 544 µM. Moreover, the values for the IC50 (in data set [12]; on Peptide deformylase [13]; in [14]) were 3 nM, 11 nM and 5 nM, respectively. In [10], this compound displayed a CHI of 3.19.
For the compound `Cc1nc(NC(=O)[C@@H]2CCCNN2C(=O)[C@H](CC2CCCC2)CN(O)C=O)sc1C`, the AUC in data set [15] was found to be 700 ng·h/mL; in data set [20] it was 1030 ng·h/mL. In data set [16], this compound registered a bioavailability of 41%. Besides, the MIC in the data set with Haemophilus influenzae [1] was 2 µg/mL (≈ 4.57 µM); with Streptococcus pneumoniae [5] it was 1 µg/mL (≈ 2.29 µM); with Staphylococcus aureus [7] it was 0.25 µg/mL (≈ 0.571 µM). Besides, the concentration in data set [17] peaked (Cmax) at 349 ng/mL. Also, the figures for the MIC90 with Staphylococcus aureus [3], against Haemophilus influenzae [6] and against Streptococcus pneumoniae [9] were 0.5 µg/mL (≈ 1.14 µM), 2 µg/mL (≈ 4.57 µM) and 0.5 µg/mL (≈ 1.14 µM), respectively. The same compound displayed a kinetic solubility in [4] of 381 µM (≈ 167 µg/mL). Also, the values for the half-life in [18] and in data set [19] were 1.1 h and 3.8 h, respectively. Moreover, the IC50 turned out to be 0.2 nM in data set [12], 0.63 nM at Peptide deformylase [13] and 1 nM in data set [14]. The Vd in data set [21] came to 1.6 L/kg. The same compound returned a clearance in data set [22] of 49 mL/min/kg. The CHI in data set [10] came out at 4.29.
For the compound `CN(C)c1cc(NC(=O)[C@@H]2CCCNN2C(=O)[C@H](CC2CCCC2)CN(O)C=O)ncn1`, the MIC is 2 µg/mL (≈ 4.47 µM) against Haemophilus influenzae [1], 0.5 µg/mL (≈ 1.12 µM) in the data set with Streptococcus pneumoniae [5] and 0.5 µg/mL (≈ 1.12 µM) with Staphylococcus aureus [7]. Further, the results for the IC50 (at Peptide deformylase [2]; in [8]; in data set [11]) were 1 nM, 0.3 nM and 13 nM, respectively. For the same compound, in data set [4], the solubility (kinetic) is over 649 µM. This compound yielded a CHI in data set [10] of 3.38.
As for `O=CN(O)C[C@@H](CC1CCCC1)C(=O)N1NCCC[C@H]1C(=O)Nc1ccncn1`, the figures for the MIC in the data set with Haemophilus influenzae [1], in the data set on Streptococcus pneumoniae [5] and against Staphylococcus aureus [7] were 1 µg/mL (≈ 2.47 µM), 2 µg/mL (≈ 4.94 µM) and 2 µg/mL (≈ 4.94 µM), respectively. In addition, the MIC90 against Staphylococcus aureus [3] was found to be 1 µg/mL (≈ 2.47 µM); against Haemophilus influenzae [6], 2 µg/mL (≈ 4.94 µM); in the data set on Streptococcus pneumoniae [9], 2 µg/mL (≈ 4.94 µM). For the same compound, in [4], the solubility (kinetic) is over 464 µM. The IC50 was 0.3 nM in data set [12], 2 nM on Peptide deformylase [13] and 6 nM in [14]. Also, in [10], the CHI was determined as 2.7.
In the case of `O=CN(O)C[C@@H](CC1CCCC1)C(=O)N1NCCC[C@H]1C(=O)N1CCCCC1`, the MIC is 2 µg/mL (≈ 5.07 µM) in the data set on Haemophilus influenzae [1], 4 µg/mL (≈ 10.1 µM) in the data set on Streptococcus pneumoniae [5] and 1 µg/mL (≈ 2.53 µM) against Staphylococcus aureus [7]. Also, the solubility (kinetic) in data set [4] is over 739 µM. For the same compound, the IC50 in data set [12] came out at 2 nM; on Peptide deformylase [13] it was 6 nM; in data set [14], 8 nM. The same compound displayed a CHI in data set [10] of 3.3.
With `Cc1ccnc(NC(=O)[C@@H]2CCCNN2C(=O)[C@H](CC2CCCC2)CN(O)C=O)c1`, the MIC against Haemophilus influenzae [1] worked out at 2 µg/mL (≈ 4.79 µM); against Streptococcus pneumoniae [5] it was 2 µg/mL (≈ 4.79 µM); in the data set with Staphylococcus aureus [7] it was 1 µg/mL (≈ 2.4 µM). The IC50 at Peptide deformylase [2] was determined as 2 nM; in data set [8], 0.4 nM; in data set [11] it was 40 nM. Also, the MIC90 stood at 1 µg/mL (≈ 2.4 µM) in the data set on Staphylococcus aureus [3], 4 µg/mL (≈ 9.58 µM) in the data set on Haemophilus influenzae [6] and 1 µg/mL (≈ 2.4 µM) against Streptococcus pneumoniae [9]. This compound also displayed a kinetic solubility in [4] of over 565 µM. The CHI in data set [10] is reported as 4.05.
In the case of `O=CN(O)C[C@@H](CC1CCCC1)C(=O)N1NCCC[C@H]1C(=O)Nc1cccnn1`, the values for the MIC in the data set with Haemophilus influenzae [1], in the data set with Streptococcus pneumoniae [5] and with Staphylococcus aureus [7] were 0.5 µg/mL (≈ 1.24 µM), 4 µg/mL (≈ 9.89 µM) and 1 µg/mL (≈ 2.47 µM), respectively. The compound further registered a kinetic solubility in data set [4] of 303 µM (≈ 123 µg/mL). In addition, the IC50 in data set [12] came to 0.6 nM; on Peptide deformylase [13], 2 nM; in [14], 4 nM. In [10], the CHI is reported as 2.69.
Take `O=CN(O)C[C@@H](CC1CCCC1)C(=O)N1NCCC[C@H]1C(=O)Nc1ccccn1`: the results for the MIC in the data set on Haemophilus influenzae [1], in the data set with Streptococcus pneumoniae [5] and against Staphylococcus aureus [7] were 0.5 µg/mL (≈ 1.24 µM), 1 µg/mL (≈ 2.48 µM) and 0.5 µg/mL (≈ 1.24 µM), respectively. In data set [4], this compound registered a solubility (kinetic) of over 463 µM. In addition, the IC50 in [12] stood at 1 nM; at Peptide deformylase [13], 2 nM; in [14], 3 nM. In addition, the CHI in data set [10] turned out to be 3.71.
As for `O=CN(O)C[C@@H](CC1CCCC1)C(=O)N1NCCC[C@H]1C(=O)Nc1ccccc1`, the figures for the MIC in the data set with Haemophilus influenzae [1], against Streptococcus pneumoniae [5] and against Staphylococcus aureus [7] were 1 µg/mL (≈ 2.48 µM), 2 µg/mL (≈ 4.97 µM) and 4 µg/mL (≈ 9.94 µM), respectively. Besides, the solubility (kinetic) in data set [4] is over 534 µM. The results for the IC50 (in [12]; against Peptide deformylase [13]; in [14]) were 1 nM, 5 nM and 2 nM, respectively. In addition, the CHI in data set [10] was found to be 4.82.
